Reference: US9204653B2, “5-fluoro pyrimidine derivatives” (DOW AGROSCIENCES LLC, priority 2008, dated 2015)
Where two headings read alike, the source gives them in different places.

System: Mycosphaerella graminicola; Anamorph: Septoria tritici; Bayer Code SEPTTR
Assay: Leaf blotch of wheat, foliar fungicide treatment, one day protectant (1DP) or three day curative (3DC)
Format: in vivo, Septoria tritici on wheat plants (variety Yuma)
Conditions: Zymoseptoria tritici; for pest or weed control at 50 ppm / pest or weed control at 200 ppm: % disease control rating
[1] = 24 h, one day protectant (1DP), 25 ppm, percent disease control rating, read-out: SETTTR 1DP 25 ppm
[2] = 24 h, one day protectant (1DP), percent disease control rating, read-out: SEPTTR 1DP 100 ppm
[3] = 72 h, three day curative (3DC), 25 ppm, percent disease control rating, read-out: SEPTTR 3DC 25 ppm
[4] = 72 h, three day curative (3DC), percent disease control rating, read-out: SEPTTR 3DC 100 ppm
[5] = 24 h, one day protectant (1DP), 25 ppm, rating of percent disease control, read-out: SETTTR 1DP 25 ppm
[6] = 24 h, one day protectant (1DP), rating of percent disease control, read-out: SEPTTR 1DP 100 ppm
[7] = 72 h, three day curative (3DC), 25 ppm, rating of percent disease control, read-out: SEPTTR 3DC 25 ppm
[8] = 72 h, three day curative (3DC), rating of percent disease control, read-out: SEPTTR 3DC 100 ppm
[9] = 24 h, one day protectant (1DP), 25 ppm (first 1DP column), percent control rating, read-out: SETTTR 1DP 25 ppm
[10] = 24 h, one day protectant (1DP), 25 ppm as printed (second 1DP column), percent control rating, read-out: SETTTR 1DP 25 ppm
[11] = 72 h, three day curative (3DC), 25 ppm, percent control rating, read-out: SEPTTR 3DC 25 ppm
[12] = 72 h, three day curative (3DC), percent control rating, read-out: SEPTTR 3DC 100 ppm
[13] = 24 h, one day protectant, 25 ppm, rating of percent disease control, read-out: SETTTR 1DP 25 ppm
[14] = 24 h, one day protectant, rating of percent disease control, read-out: SEPTTR 1DP 100 ppm
[15] = 72 h, three day curative, 25 ppm, rating of percent disease control, read-out: SEPTTR 3DC 25 ppm
[16] = 72 h, three day curative, rating of percent disease control, read-out: SEPTTR 3DC 100 ppm

## Fc1ccccc1CNc1nc(OCc2ccc(Cl)c(Cl)c2)ncc1F [Compound 883]
24 h, one day protectant
  pest or weed control at 50 ppm: 76 to 100%
  pest or weed control at 200 ppm: 76 to 100%

## Nc1nc(OCc2cccc(Br)c2)ncc1F [Compound 2, 2-(3-Bromobenzyloxy)-5-fluoropyrimidin-4-ylamine]
[1]
  pest or weed control at 25 ppm: 76 to 100%
[2]
  pest or weed control at 100 ppm: 76 to 100%
[3]
  pest or weed control at 25 ppm: 76 to 100%
[4]
  pest or weed control at 100 ppm: 76 to 100%

## Cc1ccc(COc2ncc(F)c(NC#N)n2)cc1 [Compound 1130]
24 h, one day protectant (1DP), 25 ppm (first 1DP column), percent disease control rating, read-out: SETTTR 1DP 25 ppm
  pest or weed control at 25 ppm: 0 to 25%
24 h, one day protectant (1DP), 25 ppm as printed (second 1DP column), percent disease control rating, read-out: SETTTR 1DP 25 ppm
  pest or weed control at 25 ppm: 0 to 25%
[3]
  pest or weed control at 25 ppm: 26 to 50%
[4]
  pest or weed control at 100 ppm: 0 to 25%

## Nc1nc(OCc2cccc(Cl)c2)ncc1F [Compound 468]
[5]
  pest or weed control at 25 ppm: 76 to 100%
[6]
  pest or weed control at 100 ppm: 76 to 100%
[7]
  pest or weed control at 25 ppm: 76 to 100%
[8]
  pest or weed control at 100 ppm: 76 to 100%

## O=C(Nc1nc(O)ncc1F)NC1CCCC1 [Compound 973]
[9]
  pest or weed control at 25 ppm: 26 to 50%
[10]
  pest or weed control at 25 ppm: 26 to 50%
[11]
  pest or weed control at 25 ppm: 76 to 100%
[12]
  pest or weed control at 100 ppm: 51 to 75%

## N#C/C(=N\Oc1ncc(F)c(N)n1)c1ccccc1 [Compound 640]
[13]
  pest or weed control at 25 ppm: 76 to 100%
[14]
  pest or weed control at 100 ppm: 76 to 100%
[15]
  pest or weed control at 25 ppm: 76 to 100%
[16]
  pest or weed control at 100 ppm: 76 to 100%

## Cc1ccc(CN(C)c2nc(O)ncc2F)cc1 [Compound 1069]
[9]
  pest or weed control at 25 ppm: 0 to 25%
[10]
  pest or weed control at 25 ppm: 0 to 25%
[11]
  pest or weed control at 25 ppm: 51 to 75%
[12]
  pest or weed control at 100 ppm: 51 to 75%

## ON(Cc1ccccc1)c1nc(OCc2ccc(F)cc2)ncc1F [Compound 235]
[5]
  pest or weed control at 25 ppm: 76 to 100%
[6]
  pest or weed control at 100 ppm: 76 to 100%
[7]
  pest or weed control at 25 ppm: 51 to 75%
[8]
  pest or weed control at 100 ppm: 76 to 100%

## Fc1cnc(OCc2ccccc2)nc1NNc1ccccc1 [Compound 282]
[5]
  pest or weed control at 25 ppm: 0 to 25%
[6]
  pest or weed control at 100 ppm: 26 to 50%
[7]
  pest or weed control at 25 ppm: 26 to 50%
[8]
  pest or weed control at 100 ppm: 51 to 75%

## C/C(=N\Oc1ncc(F)c(/N=C/N(C)C)n1)c1ccccc1 [Compound 427]
[5]
  pest or weed control at 25 ppm: 76 to 100%
[6]
  pest or weed control at 100 ppm: 76 to 100%
[7]
  pest or weed control at 25 ppm: 76 to 100%
[8]
  pest or weed control at 100 ppm: 76 to 100%

## COc1cccc(COc2ncc(F)c(N/N=C/c3nc(C)cs3)n2)c1 [Compound 603]
[13]
  pest or weed control at 25 ppm: 26 to 50%
[14]
  pest or weed control at 100 ppm: 76 to 100%
[15]
  pest or weed control at 25 ppm: 0 to 25%
[16]
  pest or weed control at 100 ppm: 0 to 25%

## CN(C)CCOc1ncc(F)c(N)n1 [Compound 545]
[5]
  pest or weed control at 25 ppm: 0 to 25%
[6]
  pest or weed control at 100 ppm: 26 to 50%
[7]
  pest or weed control at 25 ppm: 0 to 25%
[8]
  pest or weed control at 100 ppm: 51 to 75%

## CN(C)/C=N/c1nc(OC(=O)c2ccc(Cl)cc2)ncc1F [Compound 585]
[13]
  pest or weed control at 25 ppm: 76 to 100%
[14]
  pest or weed control at 100 ppm: 76 to 100%
[15]
  pest or weed control at 25 ppm: 76 to 100%
[16]
  pest or weed control at 100 ppm: 76 to 100%

## COc1ncc(F)c(N)n1 [Compound 850]
24 h, one day protectant
  pest or weed control at 50 ppm: 0 to 25%
  pest or weed control at 200 ppm: 51 to 75%

## Nc1nc(OCc2ccc(Cl)nc2)ncc1F [Compound 644]
[13]
  pest or weed control at 25 ppm: 76 to 100%
[14]
  pest or weed control at 100 ppm: 76 to 100%
[15]
  pest or weed control at 25 ppm: 76 to 100%
[16]
  pest or weed control at 100 ppm: 76 to 100%

## CC(Oc1ncc(F)c(N)n1)c1ccc(C(C)(C)C)cc1Cl (stereo not drawn) [Compound 173]
[1]
  pest or weed control at 25 ppm: 51 to 75%
[2]
  pest or weed control at 100 ppm: 76 to 100%
[3]
  pest or weed control at 25 ppm: 0 to 25%
[4]
  pest or weed control at 100 ppm: 51 to 75%

## COc1cccc(COc2ncc(F)c(N(N)C3CCCCC3)n2)c1 [Compound 111]
[1]
  pest or weed control at 25 ppm: 0 to 25%
[2]
  pest or weed control at 100 ppm: 0 to 25%
[3]
  pest or weed control at 25 ppm: 0 to 25%
[4]
  pest or weed control at 100 ppm: 0 to 25%

## Fc1cnc(OCc2cc(Cl)cc(Cl)c2)nc1NC1CC1 [Compound 870]
24 h, one day protectant
  pest or weed control at 200 ppm: 76 to 100%

## Fc1ccccc1CNc1nc(OCc2ccncc2)ncc1F [Compound 913]
24 h, one day protectant
  pest or weed control at 50 ppm: 76 to 100%
  pest or weed control at 200 ppm: 76 to 100%

## COc1ncc(F)c(NNc2ccccc2Cl)n1 [Compound 1034]
[9]
  pest or weed control at 25 ppm: 0 to 25%
[10]
  pest or weed control at 25 ppm: 0 to 25%
[11]
  pest or weed control at 25 ppm: 0 to 25%
[12]
  pest or weed control at 100 ppm: 0 to 25%

## COc1cccc(COc2ncc(F)c(NS(N)(=O)=O)n2)c1 [Compound 43, [5-Fluoro-2-(3-methoxybenzyloxy)pyrimidin-4-yl]sulfamide]
[1]
  pest or weed control at 25 ppm: 26 to 50%
[2]
  pest or weed control at 100 ppm: 51 to 75%
[3]
  pest or weed control at 25 ppm: 51 to 75%
[4]
  pest or weed control at 100 ppm: 51 to 75%
